This experiment can be described thus: Ratio of Kcat versus Km was determined.

Regarding `CN1CC=C(c2cccn2C)CC1`, the Ratio was determined as 1800. The result for `CN1CC=C(c2ccc[nH]2)CC1` reads 46.

Values taken from ChEMBL document CHEMBL1132216, “Studies on the monoamine oxidase-B-catalyzed biotransformation of 4-azaaryl-1-methyl-1,2,3,6-tetrahydropyridine derivatives” (J Med Chem, 1999).
